From patent US20070185093A1, “Benzotriazepine derivatives and their use as gastrin and cholecystokinin receptor ligands” (priority 2003, published 2007) come the findings set out here.

Structures are written as SMILES.

The target in the test is T1, human gastrin (CCK2) receptors (Homo sapiens, UniProt P32239).
T1 construct: amplified by PCR (polymerase chain reaction) from the start codon to the stop codon; expressed in transfected cells
T1 sequence (P32239 1-447): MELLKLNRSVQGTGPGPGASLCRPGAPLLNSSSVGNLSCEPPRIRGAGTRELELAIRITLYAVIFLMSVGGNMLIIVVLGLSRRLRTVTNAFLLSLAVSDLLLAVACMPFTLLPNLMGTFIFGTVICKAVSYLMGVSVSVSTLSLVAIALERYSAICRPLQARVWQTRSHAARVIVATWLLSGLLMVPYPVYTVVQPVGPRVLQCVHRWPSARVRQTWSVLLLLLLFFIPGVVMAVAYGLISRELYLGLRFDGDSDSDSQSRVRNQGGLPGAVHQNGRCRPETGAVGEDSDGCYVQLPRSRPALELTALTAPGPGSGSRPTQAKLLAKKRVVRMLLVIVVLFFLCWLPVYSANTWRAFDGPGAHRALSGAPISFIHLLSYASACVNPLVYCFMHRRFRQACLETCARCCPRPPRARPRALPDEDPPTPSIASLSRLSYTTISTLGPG
The test is described as follows: Displacement of [125I]-BH-CCK-8S from human CCK2 receptors cloned into NIH3T3 cells (membranes). Particulars: hCCK2 receptor, NIH3T3 clone 7 membranes, [125I]-BH-CCK-8S 200 pM, 150 min at 21° C.; ± s.e. mean; read-out: CCK2 (pKI) (converted). It counts as binding. The protocol:
A number of compounds were tested at human gastrin (CCK2) receptors which have been cloned into an NIH3T3 cell line as follows:
Stable clones expressing hCCK2R were screened for their ability to specifically bind [^125I]-BH-CCK-8S in tissue concentration curve studies (0.3×10^4-1×10^6 cells per tube) using the assay conditions described below. […] In addition there was a direct linear correlation between the amount of specific bound label and the cell concentration up to and including 2.5×10^5 cells per ml. Based on the above, this clone was chosen for expansion and fall binding characterisation.
Cultured clone 7 cells were stored as frozen pellets at −70° C. until required. Cell pellets were thawed in CCK2 assay buffer ((mM): 10 Hepes; 130 NaCl; 5 MgCl2; 4.7 KCl; 1 EGTA (pH7.2 at 21° C.) with 0.125 g Bacitracin added to each litre), and homogenised using a Polytron (4×1 s). The resulting membrane preparation was centrifuged at 39,800 g for 15 min at 4° C. Each cell pellet was re-suspended in fresh buffer and re-centriflged as above. The final pellet was re-suspended by homogenisation (Teflon-in-glass), to the appropriate membrane concentration.
For saturation and competition studies, the cell membranes prepared as in step d (3×10^4 cells per 400 μl) were incubated for 150 min at 21° C. in a final volume of 0.5 ml with CCK2 assay buffer containing [^125I]-BH-CCK-8S (50 μl; 200 pM). Total and non-specific binding of [^125I]-BH-CCK-8S were defined, respectively using 50 μl of buffer and 50 μl of 10 μM YM022. The assays were terminated by rapid filtration through pre-soaked Whatman GF/B filters which were washed (3×3 ml) with ice-cold 50 mM Tris HCl (pH7.4 @ 4° C.). Filters were transferred to plastic gamma counter vials and bound radioactivity determined by counting (1 min) in a Clini-gamma counter.
The binding of [^125I]-BH-CCK-8S to the hCCK2 receptor isoform was saturable. […] Saturation data were analysed using the curve-fitting programmes, Radlig and Ligand.
A number of compounds of the invention as well as reference compounds were tested for their ability to displace [^125I]-BH-CCK-8S from the receptors prepared as above. Briefly, dilution and addition of test compounds, radioligand and cell membranes were performed using a Beckman Biomek 2000. The ability of compounds to inhibit the specific binding of to hCCK2 receptors was determined in triplicate over a range of concentrations at half-log intervals. Total and non-specific binding was determined for each compound. Each compound was tested in a minimum of three experiments. Competition data were fitted to the Hill equation using Graph-pad Prism software to obtain estimates of the IC50 (mid-point location parameter) and nH (mid-point slope parameter). Dissociation constants (KI) were determined using the Cheng & Prusoff equation (1973) to correct for the receptor occupancy by the radioligand. All compounds were dissolved in DMF to give a stock concentration of either 1 or 10 mM and subsequent dilutions were made in assay buffer.
As for `CC(C)(C)C(=O)CN1C(=O)N(CC(=O)Nc2cccc(C(=O)O)c2)NC(C2CCCCC2)c2ccccc21` (racemic) [Example 1, (+/−)-3-{2-[5-Cyclohexyl-1-(3,3-dimethyl-2-oxo-butyl)-2-oxo-1,2,4,5-tetrahydro-3H-1,3,4-benzotriazepin-3-yl]-acetylamino)-benzoic acid], the Ki is 17.8 nM.
For the molecule `CNc1cccc(NC(=O)CN2NC(C3CCCCC3)c3ccccc3N(CC(=O)C(C)(C)C)C2=O)c1` (racemic) [Example 2, (+/−)-2-[5-Cyclohexyl-1-(3,3-dimethyl-2-oxo-butyl)-2-oxo-1,2,4,5-tetrahydro-3H-1,3,4-benzotriazepin-3-yl]-N-(3-methylamino-phenyl)-acetamide], the Ki was 16.2 nM.
To `Cc1cccc(NC(=O)CN2NC(C3CCCCC3)c3ccccc3N(CC(=O)C(C)(C)C)C2=O)c1` (racemic) [Example 3, (+/−)-2-[5-Cyclohexyl-1-(3,3-dimethyl-2-oxo-butyl)-2-oxo-1,2,4,5-tetrahydro-3H-3H-1,3,4-benzotriazepin-3-yl]-N-m-tolyl-acetamide] belongs 44.7 nM; to `O=C(CN1NC(C2CCCCC2)c2ccccc2N(CC(=O)C2CCCC2)C1=O)Nc1cccc(C(=O)O)c1` (racemic) [Example 4, (+/−)-3-{2-[5-Cyclohexyl-1-(2-cyclopentyl-2-oxo-ethyl)-2-oxo-1,2,4,5-tetrahydro-3H-1,3,4-benzotriazepin-3-yl]-acetylamino}-benzoic acid], 1.48 nM; to `O=C(O)Cc1cccc(NC(=O)CN2NC(C3CCCCC3)c3ccccc3N(CC(=O)C3CCCC3)C2=O)c1` (racemic) [Example 5, (+/−)-(3-{2-[5-Cyclohexyl-1-(2-cyclopentyl-2-oxo-ethyl)-2-oxo-1,2,4,5-tetrahydro-3H-1,3,4-benzotriazepin-3-yl]-acetylamino}-phenyl)-acetic acid], 79.4 nM.
Take `O=C(O)CCc1cccc(NC(=O)CN2NC(C3CCCCC3)c3ccccc3N(CC(=O)C3CCCC3)C2=O)c1` (racemic) [Example 6, (+/−)-3-(3-(2-[5-Cyclohexyl-1-(2-cyclopenlyl-2-oxo-ethyl)-2-oxo-1,2,4,5tetrahydro-3H-1,3,4-benzotriazepin-3-yl]-acetylamino}-phenyl)-propionic acid]: the Ki was 0.759 nM.
In the case of `CNc1cccc(NC(=O)CN2NC(C3CCCCC3)c3ccccc3N(CC(=O)C3CCCC3)C2=O)c1` (racemic) [Example 7, (+/−)-2-[5-Cyclohexyl-1-(2-cyclopentyl-2-oxo-ethyl)-2-oxo-1,2,4,5-tetrahydro-3H-1,3,4-benzotriazepin-3-yl]-N-(3-methylamino-phenyl)-acetamide], the Ki is 2.63 nM.
To `CC1(C(=O)CN2C(=O)N(CC(=O)Nc3cccc(C(=O)O)c3)NC(C3CCCCC3)c3ccccc32)CCCCC1` (racemic) [Example 8, (+/−)-3-(2-{5-Cyclohexyl-1-[2-(1-methyl-cyclohexyl)-2-oxo-ethyl]-2-oxo-1,2,4,5-tetrahydro-3H-1,3,4-benzotriazepin-3-yl}-acetylamino)-benizoic acid] belongs 7.76 nM.
In the case of `O=C(CN1NC(C2CCCCC2)c2ccccc2N(CC(=O)C2CCCCC2)C1=O)Nc1cccc(C(=O)O)c1` (racemic) [Example 9, (+/−)-3-{2-[5-Cyclohexyl-1-(2-cyclohexyl-2-oxo-ethyl)-2-oxo-1,2,4,5-tetrahydro-3H-1,3,4-benzotriazepin-3-yl]-acetylamino}-benzoic acid] it was 2.24 nM; in that of `O=C(O)Cc1cccc(NC(=O)CN2NC(C3CCCCC3)c3ccccc3N(CC(=O)C3CCCCC3)C2=O)c1` (racemic) [Example 10, (+/−)-(3-{2-[5-Cyclohexyl-1-(2-cyclohexyl-2-oxo-ethyl)-2-oxo-1,2,4,5-tetrahydro-3H-1,3,4-benzotriazepin-3-yl]-acetylamino}-phenyl)-acetic acid], 0.363 nM; in that of `O=C(CN1NC(C2CCCCC2)c2ccccc2N(CC(=O)C2CCCC2)C1=O)Nc1cccc(-c2nnn[nH]2)c1` (racemic) [Example 15, (+/−)2-[5-Cyclohexyl-1-(2-cyclopentyl-2-oxo-ethyl)-2-oxo-1,2,4,5-tetrahydro-3H-1,3,4-benzotriazepin-3-yl]-N-[3-(2H-tetrazol-5-yl)-phenyl]-acetamide], 0.501 nM.
To `O=C(CN1NC(C2CCCCC2)c2ccccc2N(CC(=O)C2CCCC2)C1=O)Nc1cccc(-c2nc(=O)o[nH]2)c1` (racemic) [Example 16, (+/−)-2-[5-Cyclohexyl-1-(2-cyclopentyl-2-oxo-ethyl)-2-oxo-1,2,4,5-tetrahydro-3H-1,3,4-benzotriazepin-3-yl]-N-[3-(5-oxo-2,5-dihydro-[1,2,4]oxadiazol-3-yl)-phenyl]-acetamide] belongs 0.0794 nM; to `O=C(CN1NC(C2CCCCC2)c2ccccc2N(CC(=O)C2CCCC2)C1=O)Nc1cccc(C(=O)O)c1` (single isomer, unassigned; (+)) [Example 11, (+)-3-{2-[5-Cyclohexyl-1-(2-cyclopentyl-2-oxo-ethyl)-2-oxo-1,2,4,5-tetrahydro-3H-1,3,4-benzotriazepin-3-yl]-acetylamino}-benzoic acid], 12.6 nM; to `O=C(O)Cc1cccc(NC(=O)CN2NC(C3CCCCC3)c3ccccc3N(CC(=O)C3CCCCC3)C2=O)c1` (single isomer, unassigned; (+)) [Example 13, (+)-(3-{2-[5-Cyclohexyl-1-(2-cyclohexyl-2-oxo-ethyl)-2-oxo-1,2,4,5-tetrahydro-3H-1,3,4-benzotriazepin-3-yl]-acetylamino}-phenyl)-acetic acid], 3.98 nM.
As to `O=C(CN1NC(C2CCCCC2)c2ccccc2N(CC(=O)C2CCCC2)C1=O)Nc1cccc(C(=O)O)c1` (single isomer, unassigned; (-)) [Example 12, (−)-3-{2-[5-Cyclohexyl-1-(2-cyclopentyl-2-oxo-ethyl)-2-oxo-1,2,4,5-tetrahydro-3H-1,3,4-benzotriazepin-3-yl]-acetylamino}-benzoic acid], the Ki was 1.58 nM.
In the case of `O=C(O)Cc1cccc(NC(=O)CN2NC(C3CCCCC3)c3ccccc3N(CC(=O)C3CCCCC3)C2=O)c1` (single isomer, unassigned; (-)) [Example 14, (−)-(3-{2-[5-Cyclohexyl-1-(2-cyclohexyl-2-oxo-ethyl)-2-oxo-1,2,4,5-tetrahydro-3H-1,3,4-benzotriazepin-3-yl]-acetylamino}-phenyl)-acetic acid] it was 0.1 nM.
